settings: rat; liver microsomes; pH 7.4; 15.0 min; 1.0 µM

| SMILES | half-life |
| --- | --- |
| CC(C)N(CCCNC(=O)Nc1ccc(C(C)(C)C)cc1)C[C@H]1O[C@@H](n2cc(Br)c3c(N)ncnc32)[C@H](O)[C@H]1O | 2.47 min |
| Cc1ccc(CCNC(=O)C2CCCN(C(=O)c3cc4sccc4n3C)C2)cc1 (centres undefined) | 1.7 min |
| CC(C)Oc1ccc(-c2ccc(=O)n(CC(=O)NCCc3ccccc3)n2)cc1 | 1.6 min |
| O=c1c(-c2ccc(O)cc2)coc2cc(O)cc(O)c12 | > 30 min |
| COc1ccc(-c2cc3nccn3c(Nc3ncccc3C(N)=O)n2)cc1OC | > 30 min |
| Cc1ccccc1C(=O)N1CCc2cc(-c3nc(NC(=O)Cc4ccc5ccccc5c4)sc3C)ccc21 | > 30 min |
| Cc1ccc(S(=O)(=O)NCc2ccccc2)cc1 | 1 min |
| Cc1ccc(C(=O)N2CCc3c(nc4cc(-c5ccccc5)[nH]n4c3=O)C2)cn1 | > 30 min |
| CC(C)NC(=O)C1CCN(C(=O)c2cc3sccc3n2Cc2ccc(Cl)cc2)CC1 | 1.05 min |
| CCOC(=O)C1=C(C)NC(=O)CC1C(=O)Nc1cc(Cl)cc(Cl)c1 (centres undefined) | 6.1 min |
| Cc1nnc(N2C(=O)c3oc4ccccc4c(=O)c3C2c2ccc(F)cc2)s1 (centres undefined) | > 30 min |
| O=C(Cc1ccccc1)Nc1ccc(S(=O)(=O)Nc2nccs2)cc1 | > 30 min |
| O=C(N/N=C/c1ccc(O)c(O)c1)c1cc2ccccc2cc1O | 15.1 min |
| Cc1csc2nc(-c3cccc(NC(=O)c4cccc(F)c4)c3)cn12 | 3.67 min |
| NC(=O)C1CCN(c2nc(-c3ccccc3Br)cs2)CC1 | 2.86 min |
| COc1cc(C2c3cc(O)c(OC)cc3CC3C(=O)OCC32)ccc1O (centres undefined) | 21.1 min |
| O=C(NCCc1ccccn1)C1CC(=O)N(c2n[nH]c3cc(Br)ccc23)C1 (centres undefined) | 29.7 min |
| Cc1nc2sccn2c(=O)c1S(=O)(=O)Nc1ccc(N2CCN(C)CC2)cc1 | 17.8 min |
| N[C@H]1CN(c2c(F)cc3c(=O)c(C(=O)O)cn(C4C[C@@H]4F)c3c2Cl)CC12CC2 (some centres undefined) | > 30 min |
| O=C(NCCO)c1cccc(-c2cc(Nc3ccc(OC(F)(F)F)cc3)ncn2)c1 | > 30 min |
| Cc1ccc(S(=O)(=O)Nc2ccc(Cl)c(C(=O)Nc3nc(-c4ccccc4)cs3)c2)cc1 | 18 min |
| COc1ccc(-c2ccc3ncc(Nc4cccnc4OC)n3n2)cn1 | 10.8 min |
| NCC(=O)Nc1cccc(-c2nn3c(=O)cc(N4CCNCC4)nc3s2)c1 | > 30 min |

| SMILES | half-life |
| --- | --- |
| CSc1cc2c(s1)c1cnn(Cc3cccc(N)c3)c(=O)c1n2C | 3.6 min |
| Cc1ccnc(NC(=S)N2CCC(c3cccc(C(F)(F)F)c3)CC2)c1 | 24 min |
| O=C(NCCCc1ccccc1)C1CCN(c2nc(-c3ccc(Br)cc3)cs2)CC1 | 2.96 min |
| CN(C)CC(=O)NC1CCCc2c1cnn2-c1ccc(F)cc1F (centres undefined) | > 30 min |
| O=S(=O)(Nc1cccc2cccnc12)c1ccc(NCc2ccc(Br)cc2O)cc1 | 2.4 min |
| Cc1ccc2oc(NC3=NC(c4ccccc4Cl)C4=C(CCCC4=O)N3)nc2c1 (centres undefined) | > 30 min |
| C#CCOc1ccc(-c2nnc(Nc3ccc(NC(C)=O)cc3)c3ccccc23)cc1 | > 30 min |
| C=Cc1ccc(C(=O)N2CCCC(CCC(=O)N3CCN(c4ccccn4)CC3)C2)cc1 (centres undefined) | 1.5 min |
| CCN(CCCOc1ccc2c(Nc3cc(CC(=O)Nc4cccc(F)c4)[nH]n3)ncnc2c1)CCOP(=O)(O)O | > 30 min |
| Cc1cccc(N2CCN(C(=O)Cn3ncc4c3-c3ccccc3OC4)CC2)c1C | 2.76 min |
| CCc1cccc(NC(=O)CSc2nc3ccccc3nc2N2CCCCC2)c1 | 1.97 min |
| O=S(=O)(c1ccc2ccccc2c1)N1CCN(c2nc(-c3cccs3)nc3ccccc23)CC1 | 2.34 min |
| O=C1C2=C(Nc3ccccc3SC2c2ccco2)c2ccccc21 (centres undefined) | 4.01 min |
| Fc1ccc(Cl)cc1-c1nc(Nc2ccncc2)c2nccnc2n1 | 15.9 min |
| NC(=O)C1CCN(c2nc(-c3ccccc3C(F)(F)F)cs2)CC1 | 5.58 min |
| COc1cccc(CNc2ccc(S(=O)(=O)Nc3nc4ccccc4o3)cc2)c1O | > 30 min |
| C=C1[C@@H](C)C2[C@H](Cc3ccccc3)NC(=O)[C@@]23C(/C=C/C[C@H](C)C[C@@](C)(O)/C=C/[C@@H]3OC(C)=O)[C@@H]1O (some centres undefined) | 5.2 min |
| O=C(C1CCN(c2nc(-c3ccc(Br)cc3)cs2)CC1)N1CCNCC1 | > 30 min |
| O=[N+]([O-])c1cccnc1N/N=C/c1ccccc1O | 7.7 min |
| Fc1ccc(-c2csc3ncnc(Sc4nnnn4-c4ccccc4)c23)cc1 | 1.6 min |
| COc1ccc(-c2ccc3nc(-c4ccc(SC)cc4)oc3c2)c(OC)c1OC | 1.8 min |
| CCOc1ccc(CCNC(=O)c2cc3ncccc3n2Cc2cccc(C)c2)cc1OCC | 1.9 min |
| Cc1ccc(-c2nc3ccccc3o2)cc1NC(=O)COc1ccccc1 | 3.5 min |

Other lines, results leading:

| half-life | SMILES |
| --- | --- |
| 4.31 min | COc1cc(C(=O)N2CCN(c3cc(Cl)ccc3Cl)CC2)cc(OC)c1OC |
| 2.7 min | CCN1CCN(c2ncc3c(n2)CCN(Cc2cc(Br)cs2)C3)CC1 |
| 6.4 min | O=C(Nc1ccc(Cl)c(S(=O)(=O)N2CCOCC2)c1)c1ccc(S(=O)(=O)N2CCOCC2)cc1 |
| 5.62 min | CCc1ccc(C2N=C(N)Nc3nc4ccccc4n32)cc1 (centres undefined) |
| > 30 min | COc1ccc(C2C=C(c3ccc(Cl)cc3)Nc3nc(-c4ccc(Cl)cc4)nn32)cc1 (centres undefined) |
| 5.49 min | CCOC(=O)c1cc(C)sc1NC(=O)c1ccc(Cl)s1 |
| 13.8 min | CC(C)CN(C[C@@H](O)[C@H](Cc1ccccc1)NC(=O)O[C@@H]1CO[C@H]2OCC[C@H]21)S(=O)(=O)c1ccc(N)cc1 |
| 6 min | COc1ccc(NC(=O)c2[nH]c(C)c(C(C)=O)c2C)cc1S(=O)(=O)N1CCCCC1 |
| > 30 min | O=[S+]([O-])(Nc1nccs1)c1ccc(NCc2cc(F)cc(Cl)c2O)cc1 |
| 24 min | CC1=C(C(=O)Nc2ccccc2)C(c2ccccc2Cl)N=C(Nc2nc3ccccc3o2)N1 (centres undefined) |
| 2.7 min | CC(C)(C)c1ccc(-n2cnc3cc(C(=O)N4CCCCC4)ccc32)cc1 |
| 7.59 min | COc1ccc(C2c3c(oc4ccc(C)cc4c3=O)C(=O)N2CCCN2CCOCC2)cc1OC (centres undefined) |
| 13 min | Cc1ccc(S(=O)(=O)Nc2ccccc2C(=O)Nc2ncc(-c3ccccc3)s2)cc1 |
| 3.18 min | Cc1cccc(-c2cc(NC(=O)c3ccccc3C)n(-c3ccccc3)n2)c1 |
| 4.9 min | Cc1ccc(S(=O)(=O)Nc2ccccc2C(=O)Nc2ccc(-c3ccccc3)cn2)cc1 |
| 1.7 min | Oc1ccc(C(=S)N2CCN(c3cccc(Cl)c3)CC2)cc1 |
| > 30 min | Nc1c(C(=O)Nc2ccc(F)cc2)sc2nc(-c3cccs3)cc(C(F)(F)F)c12 |
| 21.9 min | Cc1nc(Nc2n[nH]c3c2CN(C(=O)N[C@H](CN(C)C)c2ccccc2)C3(C)C)c2sccc2n1 |
| 11 min | COc1cccc(CNc2ccc(S(=O)(=O)Nc3nccs3)cc2)c1OC |
| > 30 min | COc1ccc(-c2ccc3c(N4CCOC[C@@H]4C)nc(N4CCOC[C@@H]4C)nc3n2)cc1CO |
| 21 min | Cc1cccc(CNc2ccc(S(=O)(=O)Nc3nccs3)cc2)c1O |
| 2.36 min | COc1ccc(NC2CCCN(C(=O)CCc3ccccc3F)C2)cc1 (centres undefined) |
| 1.5 min | O=C(Nc1ccc2c(N3CCCCC3)ncnc2c1)c1cc(F)cc(F)c1 |
| 20.7 min | COc1cccc(-c2noc(Nc3ccc4c(c3)OCCO4)n2)c1 |
| 11.7 min | COc1cncc(Nc2ncc(-c3cccc(N(C)C)c3)c3c2OCC3)c1 |
| 1.61 min | CCC1=Nc2cc(C(=O)NC3CCCC3)ccc2Sc2ccc(Cl)cc21 |
| 23 min | Cc1ccc(S(=O)(=O)n2cc(C(=O)Nc3nc(-c4ccccc4)cs3)c3ccccc32)cc1 |
| 6.19 min | NC(=O)C1CCN(c2nc(-c3ccc4occc(=O)c4c3)cs2)CC1 |

Reference: PubChem BioAssay AID1508591
